Test results as given in article PMC5674494, “Use of Cyclic Backbone NGR-Based SPECT to Increase Efficacy of Postmyocardial Infarction Angiogenesis Imaging” (Contrast Media & Molecular Imaging, 2017).
Positions of bridges follow the written chain, without caps; N, C: chain ends. Residues, ends and D or L forms follow the SMILES beside them. *: point of attachment. X1 = N[C@@H](CSC1CC(=O)N(CC2CCC(C(=O)NCCCCC(C(=O)O)N(CCN(CC(=O)O)CC(=O)O)CCN(CC(=O)O)CC(=O)O)CC2)C1=O)C(=O)*

Assays:
[1] = Micro-SPECT myocardial perfusion, SUV of 99mTc-sestamibi in heart segments; type: in vivo, Swiss mice; details: i.v., last of 4 15-min SPECT frames, mean ± SEM
Experimental: In 10–12-week-old male Swiss mice, we induced MI by ligation of the left anterior descending coronary artery (LAD) as described before to test coNGR (n = 5) or co(NGR)4 (n = 8). […] SPECT imaging was performed 7 days after MI or sham surgery. All animals were held under the guidelines of the animal care facility (Maastricht University). All animal experiments were approved by the Committee for Animal Welfare of Maastricht University.
Mice were anesthetized with isoflurane (induction 2.5%; maintenance 1.5%), a catheter was placed in a tail vein, and animals were positioned in the SPECT camera (MILabs, Utrecht, The Netherlands). Prior to image acquisition, a bolus injection of ^99mTc-sestamibi and ^111In-coNGR or ^111In-co(NGR)4 was given intravenously (i.v.) in a maximum volume of 200 µL. Table S1 in Supplementary Material available online at https://doi.org/10.1155/2017/8638549 provides an overview of the average injected dose. Immediately after injection, 4 consecutive time frames of 15 min each were acquired. For image quantification we used the last of these frames.
Acquired list mode data was reconstructed using MILabs reconstruction software (version 2.51) employing the POS-EM algorithm (6 iterations and 16 subsets, reconstructed at a voxel size of 0.4 mm). ^99mTc and ^111In images were reconstructed by selecting photo peak and background energy levels as described before.
To allow quantification of imaging agent uptake, in vivo isotope-specific conversion factors (CF) were determined for the 0.6 mm collimator in a representative phantom with a known activity. Using the previously described method the following conversion factors (CF), CF99mTc 612 MBq/mL and CF111In 643 MBq/mL, were found.
PMOD 3.7 cardiac tool PCARD (PMOD technologies, Zürich, Switzerland) was used to segment the heart in the 17-segment model. Uptake per segment was subsequently expressed as a mean standardized uptake value (SUVmean), also using the previously described method. For body weight, we assumed that 1 g equalled 1 mL.

[2] = Octanol/water partition coefficient (logP); type: physicochemical; details: 111In-labeled tracer, separate experiment 2 of 3, N = 3, method as ref 22
Experimental: The logP value of each compound was determined in three separate experiments as described previously.

[3] = in vitro; type: in vitro ADME; details: human, whole blood
Experimental: ^111[…], or ^111In-co(NGR)4 was added to […] human blood in heparin (BD Biosciences, […], The Netherlands). Blood stability was tested at 0, 10, 30, and 50 min. For each time point imaging agents were separated from blood cells and proteins by adding 0.5 mL MeCN (VWR International BV, Breda, The Netherlands) to 0.5 mL blood sample followed by centrifugation (2,000 ×g, 3 min). Supernatant samples were analyzed by HPLC using the above-mentioned method.

[4] = MI mice (n = 5), coNGR group, 7 days after LAD ligation
[5] = MI mice (n = 8), co(NGR)4 group, 7 days after LAD ligation
[6] = Sham-operated mice (n = 6), co(NGR)4 group, 7 days after surgery

With `[C-]#[N+]CC(C)(C)OC.[C-]#[N+]CC(C)(C)OC.[C-]#[N+]CC(C)(C)OC.[C-]#[N+]CC(C)(C)OC.[C-]#[N+]CC(C)(C)OC.[C-]#[N+]CC(C)(C)OC.[Tc]` [^99mTc-sestamibi] the “SUV of 99mTc-sestamibi, segment 1. Basal anterior” value (from here on “SUV … segment 1. Basal anterior”) [1, 4] was 2.46 ± 0.45, the “SUV of 99mTc-sestamibi, segment 2. Basal anteroseptal” value (“SUV … segment 2. Basal anteroseptal” below) [1, 4] was 2.28 ± 0.39 and the “SUV of 99mTc-sestamibi, segment 3. Basal inferoseptal” value (shortened to “SUV … segment 3. Basal inferoseptal”) [1, 4] was 2.33 ± 0.38. The “SUV of 99mTc-sestamibi, segment 4. Basal inferior” value (“SUV … segment 4. Basal inferior” for short) [1, 4] was 2.60 ± 0.56, the “SUV of 99mTc-sestamibi, segment 5. Basal inferolateral” value (“SUV … segment 5. Basal inferolateral” below) [1, 4] was 2.23 ± 0.63 and the “SUV of 99mTc-sestamibi, segment 6. Basal anterolateral” value (“SUV … segment 6. Basal anterolateral” below) [1, 4] was 2.14 ± 0.52. The “SUV of 99mTc-sestamibi, segment 7. Mid anterior” value (“SUV … segment 7. Mid anterior” below) [1, 4] was 1.41 ± 0.28, the “SUV of 99mTc-sestamibi, segment 8. Mid anteroseptal” value (“SUV … segment 8. Mid anteroseptal” for short) [1, 4] was 2.46 ± 0.39 and the “SUV of 99mTc-sestamibi, segment 9. Mid inferoseptal” value (from here on “SUV … segment 9. Mid inferoseptal”) [1, 4] was 2.27 ± 0.53. The “SUV of 99mTc-sestamibi, segment 10. Mid inferior” value (from here on “SUV … segment 10. Mid inferior”) [1, 4] was 1.64 ± 0.67, the “SUV of 99mTc-sestamibi, segment 11. Mid inferolateral” value (shortened to “SUV … segment 11. Mid inferolateral”) [1, 4] was 0.75 ± 0.24 and the “SUV of 99mTc-sestamibi, segment 12. Mid anterolateral” value (“SUV … segment 12. Mid anterolateral” for short) [1, 4] was 0.42 ± 0.09. For the same molecule, the “SUV of 99mTc-sestamibi, segment 13. Apical anterior” value (“SUV … segment 13. Apical anterior” below) [1, 4] was 0.71 ± 0.30, the “SUV of 99mTc-sestamibi, segment 14. Apical septal” value (“SUV … segment 14. Apical septal” for short) [1, 4] was 1.67 ± 0.39 and the “SUV of 99mTc-sestamibi, segment 15. Apical inferior” value (“SUV … segment 15. Apical inferior” below) [1, 4] was 1.30 ± 0.31. For the same molecule, the “SUV of 99mTc-sestamibi, segment 16. Apical lateral” value (“SUV … segment 16. Apical lateral” for short) [1, 4] was 0.59 ± 0.26, the “SUV of 99mTc-sestamibi, segment 17. Apex” value [1, 4] was 0.98 ± 0.35 and the “SUV … segment 1. Basal anterior” value [1, 5] was 2.60 ± 0.70. The “SUV … segment 2. Basal anteroseptal” value [1, 5] was 3.68 ± 0.42, the “SUV … segment 3. Basal inferoseptal” value [1, 5] was 3.97 ± 0.49 and the “SUV … segment 4. Basal inferior” value [1, 5] was 3.06 ± 0.54. For the same molecule, the “SUV … segment 5. Basal inferolateral” value [1, 5] was 1.66 ± 0.47, the “SUV … segment 6. Basal anterolateral” value [1, 5] was 1.60 ± 0.55 and the “SUV … segment 7. Mid anterior” value [1, 5] was 1.35 ± 0.31. The “SUV … segment 8. Mid anteroseptal” value [1, 5] was 3.56 ± 0.47, the “SUV … segment 9. Mid inferoseptal” value [1, 5] was 3.57 ± 0.68 and the “SUV … segment 10. Mid inferior” value [1, 5] was 2.21 ± 0.52. The “SUV … segment 11. Mid inferolateral” value [1, 5] was 0.68 ± 0.07, the “SUV … segment 12. Mid anterolateral” value [1, 5] was 0.62 ± 0.07 and the “SUV … segment 13. Apical anterior” value [1, 5] was 1.04 ± 0.25. The “SUV … segment 14. Apical septal” value [1, 5] was 2.68 ± 0.30, the “SUV … segment 15. Apical inferior” value [1, 5] was 2.06 ± 0.24 and the “SUV … segment 16. Apical lateral” value [1, 5] was 0.67 ± 0.11. For the same molecule, the “SUV of 99mTc-sestamibi, segment 17. Apex” value [1, 5] was 1.25 ± 0.32, the “SUV … segment 1. Basal anterior” value [1, 6] was 2.91 ± .026 and the “SUV … segment 2. Basal anteroseptal” value [1, 6] was 2.72 ± 0.32. For the same molecule, the “SUV … segment 3. Basal inferoseptal” value [1, 6] was 2.89 ± 0.33, the “SUV … segment 4. Basal inferior” value [1, 6] was 3.07 ± 0.33 and the “SUV … segment 5. Basal inferolateral” value [1, 6] was 3.03 ± 0.30. For the same molecule, the “SUV … segment 6. Basal anterolateral” value [1, 6] was 2.89 ± 0.20, the “SUV … segment 7. Mid anterior” value [1, 6] was 3.00 ± 0.22 and the “SUV … segment 8. Mid anteroseptal” value [1, 6] was 3.10 ± 0.28. For the same molecule, the “SUV … segment 9. Mid inferoseptal” value [1, 6] was 3.16 ± 0.26, the “SUV … segment 10. Mid inferior” value [1, 6] was 3.03 ± 0.29 and the “SUV … segment 11. Mid inferolateral” value [1, 6] was 3.06 ± 0.34. The “SUV … segment 12. Mid anterolateral” value [1, 6] was 2.77 ± 0.22, the “SUV … segment 13. Apical anterior” value [1, 6] was 2.93 ± 0.22 and the “SUV … segment 14. Apical septal” value [1, 6] was 3.23 ± 0.24. For the same molecule, the “SUV … segment 15. Apical inferior” value [1, 6] was 2.88 ± 0.32, the “SUV … segment 16. Apical lateral” value [1, 6] was 2.44 ± 0.20 and the “SUV of 99mTc-sestamibi, segment 17. Apex” value [1, 6] was 2.71 ± 0.25.

For `CC(=O)N[C@H]1CSSC[C@@H](C(=O)NCC(=O)NCC(=O)N[C@@H](CCCCNC(=O)[C@@H](N)CSC2CC(=O)N(CC3CCC(C(=O)NCCCCC(C(=O)O)N(CCN(CC(=O)O)CC(=O)O)CCN(CC(=O)O)CC(=O)O)CC3)C2=O)C(N)=O)NC(=O)[C@H](CCCNC(=N)N)NC(=O)CNC(=O)[C@H](CC(N)=O)NC1=O` (stereo partly drawn) [cNGR, cyclic(NAc-Cys-Asn-Gly-Arg-Cys-Gly-Gly-Lys)] (Ac-CNGRCGGK(X1)-NH2; disulfide 1-5), the logP2 [2] was −4.17 ± 0.01 and the remaining at 50 min [3] was 7.55%.
